Experimental findings from publication PMC11508633, “In Silico Discovery of a Novel PI3Kδ Inhibitor Incorporating 3,5,7-Trihydroxychroman-4-one Targeting Diffuse Large B-Cell Lymphoma” (International Journal of Molecular Sciences, 2024) are described below.

The target in this assay is T1, PI3Kδ (Homo sapiens, UniProt O00329).
T1 construct: gene PIK3CD; PI3Kδ (p120δ/p85α); with p85α
In words: ADP-Glo kinase assay (PIP2:PS substrate, […] ATP). It is filed as biochemical. In general terms: ADP-Glo turns the ADP formed in a reaction into a luminescent signal.

T1 sequence (O00329 whole entry): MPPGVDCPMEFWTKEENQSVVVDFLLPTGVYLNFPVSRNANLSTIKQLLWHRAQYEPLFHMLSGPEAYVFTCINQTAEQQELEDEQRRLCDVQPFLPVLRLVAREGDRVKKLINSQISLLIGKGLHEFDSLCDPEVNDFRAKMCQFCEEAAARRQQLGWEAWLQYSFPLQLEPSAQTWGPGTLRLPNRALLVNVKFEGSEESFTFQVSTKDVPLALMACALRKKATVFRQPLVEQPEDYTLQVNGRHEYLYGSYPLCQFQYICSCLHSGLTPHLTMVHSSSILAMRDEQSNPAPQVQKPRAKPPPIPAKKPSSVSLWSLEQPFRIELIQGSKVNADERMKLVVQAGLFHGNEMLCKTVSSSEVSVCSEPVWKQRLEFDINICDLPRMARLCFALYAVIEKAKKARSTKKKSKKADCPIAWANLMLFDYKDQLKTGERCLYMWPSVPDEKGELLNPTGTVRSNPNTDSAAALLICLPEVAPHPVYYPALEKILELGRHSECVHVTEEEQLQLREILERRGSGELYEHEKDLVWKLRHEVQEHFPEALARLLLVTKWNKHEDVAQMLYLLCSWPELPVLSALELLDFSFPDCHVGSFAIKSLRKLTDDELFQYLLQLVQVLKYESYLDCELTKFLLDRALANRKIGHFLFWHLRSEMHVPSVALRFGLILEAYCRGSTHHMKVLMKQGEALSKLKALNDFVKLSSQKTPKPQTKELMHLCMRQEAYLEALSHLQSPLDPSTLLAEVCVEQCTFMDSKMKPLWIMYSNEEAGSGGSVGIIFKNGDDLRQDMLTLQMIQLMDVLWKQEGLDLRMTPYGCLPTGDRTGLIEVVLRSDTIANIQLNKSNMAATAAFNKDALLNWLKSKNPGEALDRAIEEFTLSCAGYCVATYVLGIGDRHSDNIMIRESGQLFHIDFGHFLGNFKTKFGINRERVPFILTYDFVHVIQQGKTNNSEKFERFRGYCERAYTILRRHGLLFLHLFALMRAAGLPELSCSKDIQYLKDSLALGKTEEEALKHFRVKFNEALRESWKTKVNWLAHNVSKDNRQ
T1 sequence (P27986 2-724 partner): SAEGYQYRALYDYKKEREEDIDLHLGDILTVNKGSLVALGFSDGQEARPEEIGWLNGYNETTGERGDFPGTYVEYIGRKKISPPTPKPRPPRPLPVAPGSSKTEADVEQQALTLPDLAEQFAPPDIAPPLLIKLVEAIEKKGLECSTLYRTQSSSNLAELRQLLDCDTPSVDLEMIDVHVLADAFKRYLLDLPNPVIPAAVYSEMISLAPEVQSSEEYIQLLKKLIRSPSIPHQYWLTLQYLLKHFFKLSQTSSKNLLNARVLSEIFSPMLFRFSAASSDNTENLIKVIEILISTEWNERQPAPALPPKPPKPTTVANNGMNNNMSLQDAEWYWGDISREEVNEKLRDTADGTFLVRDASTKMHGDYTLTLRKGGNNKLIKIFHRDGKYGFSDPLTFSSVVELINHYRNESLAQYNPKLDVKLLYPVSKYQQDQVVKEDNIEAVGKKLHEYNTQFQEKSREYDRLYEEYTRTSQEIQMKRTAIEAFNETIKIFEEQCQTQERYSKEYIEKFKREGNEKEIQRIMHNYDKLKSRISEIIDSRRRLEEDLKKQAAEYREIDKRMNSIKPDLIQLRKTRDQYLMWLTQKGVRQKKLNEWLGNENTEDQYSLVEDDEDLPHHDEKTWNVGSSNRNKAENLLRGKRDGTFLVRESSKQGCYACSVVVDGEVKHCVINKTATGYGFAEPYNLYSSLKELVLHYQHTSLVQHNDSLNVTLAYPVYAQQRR

The term IC50 denotes the concentration needed to halve the response being measured. Low readings indicate greater potency, high ones weaker potency. As to `COc1cc(C2Oc3cc([C@H]4Oc5cc(O)cc(O)c5C(=O)[C@@H]4O)ccc3OC2CO)ccc1O` (stereo partly shown) [Silibinin], half-maximal inhibition (IC50) required 288 µM.
